From patent US6342516B1, “Phenylazole compounds, process for producing the same and drugs for hyperlipemia” (Nippon Soda Co., Ltd., priority 1998, dated 2002)

Tested on: cholesterol-fed hamsters
Assay: Effect on serum lipids of cholesterol-fed hamsters (serum total cholesterol and triglyceride reduction rate)
Assay type: in vivo
Conditions: cholesterol-fed Syrian hamsters, oral once a day for 5 days
Protocol: Pharmacological Test Example 1: Effect on serum lipids of cholesterol-fed hamsters
Syrian hamsters (Std:Syrian, Male, 4 weeks old) were freely fed with chow containing 1% cholesterol and 10% coconut oil for 3 weeks ad libitum.
At the last week of feeding, each of the test compounds was dissolved or suspended in either 0.1% hydrochloric acid solution or 1% polyethylene-hydrogenated castor oil (NIKKOL HCO-60) solution and was orally administrated to hamsters once a day for 5 days. For the hamsters of the control group, only the solvent was orally administered. Then, blood was collected from the abdominal vein under the condition of anesthesia with pentobarbital at 2-4 hours after the last administration, and the serum in the blood was separated. The serum total cholesterol value and the serum triglyceride value were determined by using autobiochemical analyzer with analizing kits, and reduction rate of the serum lipids was determined according to the equation indicated below based on the analyzed values for respective hamster groups.
Serum lipids reduction rate (%)=(Amount of serum lipids of the control group−Amount of serum lipids of the group administrated with the test compound)/Amount of serum lipids of the control group×100

| Compound | Serum lipids reduction rate comparing to Control group (%), Means of 3 animals: Total cholesterol (dose 25 mg/kg) | Serum lipids reduction rate comparing to Control group (%), Means of 3 animals: Triglyceride (dose 25 mg/kg) | other results |
| --- | --- | --- | --- |
| O=C(Nc1ccc(-n2ccnc2)cc1)C1CCCO1 (racemic) [4-17] |  |  | Serum lipids reduction rate comparing to Control group (%), Means of 3 animals: Total cholesterol (dose 12.5 mg/kg): 35%; Serum lipids reduction rate comparing to Control group (%), Means of 3 animals: Triglyceride (dose 12.5 mg/kg): 53% |
| O=C(Nc1ccc(-n2ccnc2)cc1)c1cc2cc(F)ccc2[nH]1 [4-9] | 44% | 61% |  |
| O=C(Nc1ccc(-n2ccnc2)cc1)c1ccc2c(c1)OCO2 [4-21] | 51% | 57% |  |
| O=C(COc1cnc2ccccc2n1)Nc1ccc(-n2ccnc2)cc1 [4-79] |  |  | Serum lipids reduction rate comparing to Control group (%), Means of 3 animals: Total cholesterol (dose 12.5 mg/kg): 29%; Serum lipids reduction rate comparing to Control group (%), Means of 3 animals: Triglyceride (dose 12.5 mg/kg): 45% |
| Cc1ccc2ccc(C(=O)Nc3ccc(-n4ccnc4)cc3)cn12 [4-71] | 45% | 62% |  |
| O=C(COc1ncccn1)Nc1ccc(-n2ccnc2)cc1 [4-101] | 41% | 38% |  |
| O=C(COc1ccc2ccccc2n1)Nc1ccc(-n2ccnc2)cc1 [4-96] | 36% | 50% |  |
| O=C(CSc1cnccn1)Nc1ccc(-n2ccnc2)cc1 [4-87] | 34% | 37% |  |
| Cn1cccc1C(=O)Nc1ccc(-n2ccnc2)cc1 [4-39] | 25% | 45% |  |
| Cc1c(C(=O)Nc2ccc(-n3ccnc3)cc2)oc2ccccc12 [4-62] | 42% | 59% |  |
| O=C(Nc1ccc(-n2ccnc2)cc1)c1cc2ccccc2o1 [4-31] | 46% | 59% |  |
| O=C(Nc1ccc(-n2ccnc2)cc1)c1nccc2ccccc12 [4-22] | 48% | 61% |  |
| COc1cc2cc(CCC(=O)Nc3ccc(-n4ccnc4)cc3)n(S(C)(=O)=O)c2cc1OC [4-100] | 26% | 33% |  |
| O=C(Nc1ccc(-n2ccnc2)cc1)c1ccco1 [4-48] | 76% | 85% |  |
| O=C(COc1ccc2ncccc2c1)Nc1ccc(-n2ccnc2)cc1 [4-73] | 34% | 50% |  |
| O=C(COc1cccnc1)Nc1ccc(-n2ccnc2)cc1 [Compound No. 4-85] | 39% | 44% |  |
| O=C(COc1ccc2c(c1)OCO2)Nc1ccc(-n2ccnc2)cc1 [4-80] | 40% | 52% |  |
| Cc1cc(C(=O)Nc2ccc(-n3ccnc3)cc2)[nH]n1 [4-15] |  |  | Serum lipids reduction rate comparing to Control group (%), Means of 3 animals: Total cholesterol (dose 12.5 mg/kg): 37%; Serum lipids reduction rate comparing to Control group (%), Means of 3 animals: Triglyceride (dose 12.5 mg/kg): 73% |
| Cc1ccc2[nH]c(C(=O)Nc3ccc(-n4ccnc4)cc3)cc2c1 [4-7] | 27% | 31% |  |
| O=C(Nc1ccc(-n2ccnc2)cc1)c1cnc2ccccc2c1 [4-66] | 55% | 66% |  |
| COc1cccc2cc(C(=O)Nc3ccc(-n4ccnc4)cc3)oc12 [4-63] | 26% | 29% |  |
| O=C(CN1C(=O)COc2ccccc21)Nc1ccc(-c2cn[nH]c2)cc1 [4-92] | 29% | 34% |  |
| O=C(Nc1ccc(-n2ccnc2)cc1)c1cc2ccccc2[nH]1 [4-2] |  |  | Serum lipids reduction rate comparing to Control group (%), Means of 3 animals: Total cholesterol (dose 12.5 mg/kg): 32%; Serum lipids reduction rate comparing to Control group (%), Means of 3 animals: Triglyceride (dose 12.5 mg/kg): 45% |
| O=C(COc1nccc(C(F)(F)F)n1)Nc1ccc(-n2ccnc2)cc1 [4-103] | 35% | 46% |  |

| Compound | Serum lipids reduction rate comparing to Control group (%), Means of 3 animals: Total cholesterol (dose 25 mg/kg) | Serum lipids reduction rate comparing to Control group (%), Means of 3 animals: Triglyceride (dose 25 mg/kg) | other results |
| --- | --- | --- | --- |
| O=C(Nc1ccc(-n2ccnc2)cc1)c1n[nH]c2ccccc12 [4-34] | 37% | 39% |  |
| O=C1CCC(C(=O)Nc2ccc(-n3ccnc3)cc2)=NN1 [4-46] | 52% | 45% |  |
| Cn1c(CCC(=O)Nc2ccc(-n3ccnc3)cc2)nc2ccccc21 [4-97] |  |  | Serum lipids reduction rate comparing to Control group (%), Means of 3 animals: Total cholesterol (dose 12.5 mg/kg): 26%; Serum lipids reduction rate comparing to Control group (%), Means of 3 animals: Triglyceride (dose 12.5 mg/kg): 33% |
| O=C(Nc1ccc(-n2ccnc2)cc1)c1ccc2ccccc2n1 [4-41] | 50% | 67% |  |
| O=C(Nc1ccc(-n2ccnc2)cc1)C1CCc2ccccc2O1 (racemic) [4-11] | 43% | 47% |  |
| Cn1c(C(=O)Nc2ccc(-n3ccnc3)cc2)cc2ccccc21 [4-4] |  |  | Serum lipids reduction rate comparing to Control group (%), Means of 3 animals: Total cholesterol (dose 12.5 mg/kg): 23%; Serum lipids reduction rate comparing to Control group (%), Means of 3 animals: Triglyceride (dose 12.5 mg/kg): 32% |
| O=C(CC1CCc2sccc2C1=O)Nc1ccc(-n2ccnc2)cc1 (stereo not shown) [4-72] | 37% | 53% |  |
| O=C(Nc1ccc(-n2ccnc2)cc1)c1ccc[nH]1 [4-38] |  |  | Serum lipids reduction rate comparing to Control group (%), Means of 3 animals: Total cholesterol (dose 12.5 mg/kg): 32%; Serum lipids reduction rate comparing to Control group (%), Means of 3 animals: Triglyceride (dose 12.5 mg/kg): 31% |
| Cc1cc(C(=O)Nc2ccc(-n3ccnc3)cc2)n(C)n1 [4-14] | 66% | 42% |  |
| O=C(Nc1ccc(-n2ccnc2)cc1)c1cnccn1 [4-33] |  |  | Serum lipids reduction rate comparing to Control group (%), Means of 3 animals: Total cholesterol (dose 12.5 mg/kg): 35%; Serum lipids reduction rate comparing to Control group (%), Means of 3 animals: Triglyceride (dose 12.5 mg/kg): 44% |
| O=C(Nc1ccc(-n2ccnc2)cc1)c1ccc2ccc(O)nc2c1 [4-44] | 21% | 31% |  |
| O=C(Nc1ccc(-n2ccnc2)cc1)c1ccncc1 [4-27] | 40% | 46% |  |
| CC12CCC(C(=O)Nc3ccc(-n4ccnc4)cc3)(OC1=O)C2(C)C (stereo not shown) [4-19] | 19% | 50% |  |
| O=C(Nc1ccc(-n2ccnc2)cc1)c1cccnc1 [4-26] |  |  | Serum lipids reduction rate comparing to Control group (%), Means of 3 animals: Total cholesterol (dose 6.25 mg/kg): 22%; Serum lipids reduction rate comparing to Control group (%), Means of 3 animals: Triglyceride (dose 6.25 mg/kg): 48% |
| CC(C)c1cc(C(=O)Nc2ccc(-n3ccnc3)cc2)cc(O)n1 [4-28] |  |  | Serum lipids reduction rate comparing to Control group (%), Means of 3 animals: Total cholesterol (dose 12.5 mg/kg): 24%; Serum lipids reduction rate comparing to Control group (%), Means of 3 animals: Triglyceride (dose 12.5 mg/kg): 34% |
| O=C(COc1nc2c(c(C(F)(F)F)n1)CCO2)Nc1ccc(-n2ccnc2)cc1 [4-81] |  |  | Serum lipids reduction rate comparing to Control group (%), Means of 3 animals: Total cholesterol (dose 12.5 mg/kg): 22%; Serum lipids reduction rate comparing to Control group (%), Means of 3 animals: Triglyceride (dose 12.5 mg/kg): 43% |
| O=C(Nc1ccc(-n2ccnc2)cc1)C1CCOCC1 [4-32] | 58% | 68% |  |
| COc1ccc2c(c1)cc(C(=O)Nc1ccc(-n3ccnc3)cc1)n2C [4-6] |  |  | Serum lipids reduction rate comparing to Control group (%), Means of 3 animals: Total cholesterol (dose 12.5 mg/kg): 41%; Serum lipids reduction rate comparing to Control group (%), Means of 3 animals: Triglyceride (dose 12.5 mg/kg): 71% |
| O=C(Cn1c(=O)ccc2ccccc21)Nc1ccc(-c2ccn[nH]2)cc1 [4-91] | 37% | 48% |  |
| O=C(Nc1ccc(-n2ccnc2)cc1)c1cnc2ccccc2n1 [4-37] |  |  | Serum lipids reduction rate comparing to Control group (%), Means of 3 animals: Total cholesterol (dose 12.5 mg/kg): 26%; Serum lipids reduction rate comparing to Control group (%), Means of 3 animals: Triglyceride (dose 12.5 mg/kg): 25% |
| O=C(Nc1ccc(-n2ccnc2)cc1)C1COc2ccccc2O1 (stereo not shown) [4-70] | 34% | 48% |  |
| Cn1ccc(C(=O)Nc2ccc(-n3ccnc3)cc2)c1 [4-3] | 75% | 91% |  |
| CC1(C(=O)Nc2ccc(-n3ccnc3)cc2)Cc2ccccc2O1 (racemic) [4-12] | 27% | 41% |  |
